Test results: publication PMC10023787, “Trio-pharmacophore DNA-encoded chemical library for simultaneous selection of fragments and linkers” (Nature Communications, 2023)
Where two headings read alike, the source gives them in different places. Each block holds one compound with its values, some of them ahead of it.

What was measured:
[1] = target: T1, MMP-2 (Homo sapiens, UniProt P08253); assay: MMP-2 inhibition assay (fluorogenic peptide substrate); assay type: biochemical; conditions: for IC50: n.d: not detected
T1 construct: purchased Sino Biological 10082-HNAH
T1 sequence (P08253 110-660): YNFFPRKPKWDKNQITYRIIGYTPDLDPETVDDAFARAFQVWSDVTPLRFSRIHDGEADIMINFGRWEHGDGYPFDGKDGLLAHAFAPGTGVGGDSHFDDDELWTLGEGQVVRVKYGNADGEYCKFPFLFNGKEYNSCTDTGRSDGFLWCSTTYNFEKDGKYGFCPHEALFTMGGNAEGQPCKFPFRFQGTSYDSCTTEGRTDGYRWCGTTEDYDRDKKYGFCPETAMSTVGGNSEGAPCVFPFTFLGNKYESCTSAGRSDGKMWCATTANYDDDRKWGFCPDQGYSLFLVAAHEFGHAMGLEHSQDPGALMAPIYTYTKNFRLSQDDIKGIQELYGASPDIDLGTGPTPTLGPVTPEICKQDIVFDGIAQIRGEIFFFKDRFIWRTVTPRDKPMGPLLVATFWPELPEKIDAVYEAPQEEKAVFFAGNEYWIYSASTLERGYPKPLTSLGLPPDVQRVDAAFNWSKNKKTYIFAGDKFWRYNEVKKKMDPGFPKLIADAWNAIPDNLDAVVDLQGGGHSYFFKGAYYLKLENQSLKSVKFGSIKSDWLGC
How it was run: (§1)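 Human proMMP-2 and proMMP-9 were activated with 1 mM APMA (37 °C, 2 h), then used at 6.5 nM (MMP-2) or 10 nM (MMP-9) in Tris/NaCl/CaCl2/Brij 35 buffer, pH 7.5. Enzyme was preincubated with compound 30 min at RT; 25 μM DNP-Pro-Leu-Gly-Met-Trp-Ser-Arg substrate was added and fluorescence (ex 280/em 360 nm) followed 30 min. IC50 from logistic fits of Vmax.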

[2] = target: T2, MMP-9 (Homo sapiens, UniProt P14780); assay: MMP-9 inhibition assay (fluorogenic peptide substrate); assay type: biochemical; design: remaining enzyme activity (% of control): scale not given here; conditions: for IC50: n.d: not detected
T2 construct: purchased Sino Biological 10327-HNAH
How it was run: as §1

[3] = mean ± SE, Fig. 5d unit inferred, µM, read-out: IC50
[4] = mean ± SE, Fig. 5e prints no unit, µM, read-out: IC50
[5] = Figure 5d, fragment combination joined by linker, read-out: MMP2 IC50
[6] = Figure 5d, fragment combination joined by linker, read-out: MMP9 IC50

T2 sequence (P14780 107-707 limits assumed): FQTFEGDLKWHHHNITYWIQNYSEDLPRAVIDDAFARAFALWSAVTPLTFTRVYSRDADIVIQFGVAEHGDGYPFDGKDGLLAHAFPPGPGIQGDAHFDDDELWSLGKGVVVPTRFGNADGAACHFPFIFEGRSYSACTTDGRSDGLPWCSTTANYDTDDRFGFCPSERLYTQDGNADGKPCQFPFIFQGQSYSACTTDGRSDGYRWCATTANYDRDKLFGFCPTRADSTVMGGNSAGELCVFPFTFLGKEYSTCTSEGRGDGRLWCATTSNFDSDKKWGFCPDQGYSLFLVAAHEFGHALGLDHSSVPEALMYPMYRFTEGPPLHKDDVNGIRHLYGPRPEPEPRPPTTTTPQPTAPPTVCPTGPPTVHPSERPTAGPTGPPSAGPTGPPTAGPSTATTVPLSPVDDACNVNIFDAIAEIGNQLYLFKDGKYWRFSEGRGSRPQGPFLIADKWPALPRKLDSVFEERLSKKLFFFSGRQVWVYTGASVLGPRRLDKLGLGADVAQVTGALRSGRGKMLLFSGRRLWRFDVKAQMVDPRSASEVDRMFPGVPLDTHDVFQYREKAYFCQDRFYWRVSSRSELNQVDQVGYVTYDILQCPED

Structure (SMILES): O=C(Cn1cnc2c(oc3ccccc32)c1=O)NCCNC(=O)c1cncc(O)c1 [182+828 Linker 1]
remaining activity (%) ([1]; MMP-2, concentration 0.00933 µM): 100.18
remaining activity (%) ([1]; MMP-2, concentration 0.0466 µM): 86.28
remaining activity (%) ([1]; MMP-2, concentration 0.23 µM): 84.03
remaining activity (%) ([1]; MMP-2, concentration 5.83 µM): 81.34
remaining activity (%) ([1]; MMP-2, concentration 29.14 µM): 67.66
remaining activity (%) ([1]; MMP-2, concentration 145.72 µM): 34.11
remaining activity (%) ([1]; MMP-2, concentration 728.60 µM): 8.96
IC50 [1, 3]: 77.1 ± 10 µM
remaining enzyme activity (% of control) ([2]; MMP-9, concentration 0.08 µM): 88.36
remaining enzyme activity (% of control) ([2]; MMP-9, concentration 0.42 µM): 92.30
remaining enzyme activity (% of control) ([2]; MMP-9, concentration 2.10 µM): 86.01
remaining enzyme activity (% of control) ([2]; MMP-9, concentration 10.52 µM): 90.65
remaining enzyme activity (% of control) ([2]; MMP-9, concentration 52.60 µM): 56.79
remaining enzyme activity (% of control) ([2]; MMP-9, concentration 263.00 µM): 22.31
remaining enzyme activity (% of control) ([2]; MMP-9, concentration 1315.00 µM): 0.00
IC50 [2, 4]: 92.1 ± 28.2 µM

Structure (SMILES): O=C(Cn1cnc2c(oc3ccccc32)c1=O)NCCCCCCCCNC(=O)c1cncc(O)c1 [182+828 Linker 4]
remaining activity (%) ([1]; MMP-2, concentration 0.0078 µM): 107.56
remaining activity (%) ([1]; MMP-2, concentration 0.20 µM): 99.59
remaining activity (%) ([1]; MMP-2, concentration 0.98 µM): 97.94
remaining activity (%) ([1]; MMP-2, concentration 4.88 µM): 101.19
remaining activity (%) ([1]; MMP-2, concentration 24.38 µM): 85.36
remaining activity (%) ([1]; MMP-2, concentration 121.90 µM): 64.62
remaining activity (%) ([1]; MMP-2, concentration 609.50 µM): 31.91
remaining activity (%) ([1]; MMP-2, concentration 0.04 µM): 116.92
IC50 [1, 3]: 188 ± 25.7 µM
remaining enzyme activity (% of control) ([2]; MMP-9, concentration 0.08 µM): 90.17
remaining enzyme activity (% of control) ([2]; MMP-9, concentration 0.39 µM): 88.39
remaining enzyme activity (% of control) ([2]; MMP-9, concentration 1.95 µM): 91.84
remaining enzyme activity (% of control) ([2]; MMP-9, concentration 9.75 µM): 88.91
remaining enzyme activity (% of control) ([2]; MMP-9, concentration 48.76 µM): 78.10
remaining enzyme activity (% of control) ([2]; MMP-9, concentration 243.80 µM): 49.14
remaining enzyme activity (% of control) ([2]; MMP-9, concentration 1219.00 µM): 0.00
IC50 [2, 4]: 233 ± 38.3 µM

Structure (SMILES): O=C(Cn1cnc2c(oc3ccccc32)c1=O)NCCOCCOCCNC(=O)c1cncc(O)c1 [182+828 Linker 10]
remaining activity (%) ([1]; MMP-2, concentration 0.0117 µM): 98.76
remaining activity (%) ([1]; MMP-2, concentration 0.06 µM): 98.75
remaining activity (%) ([1]; MMP-2, concentration 0.29 µM): 92.92
remaining activity (%) ([1]; MMP-2, concentration 1.46 µM): 80.34
remaining activity (%) ([1]; MMP-2, concentration 7.32 µM): 73.36
remaining activity (%) ([1]; MMP-2, concentration 36.60 µM): 63.34
remaining activity (%) ([1]; MMP-2, concentration 183.00 µM): 14.49
remaining activity (%) ([1]; MMP-2, concentration 915.00 µM): 0.00
IC50 [1, 3]: 43 ± 19.3 µM
remaining enzyme activity (% of control) ([2]; MMP-9, concentration 0.06 µM): 97.14
remaining enzyme activity (% of control) ([2]; MMP-9, concentration 0.29 µM): 97.22
remaining enzyme activity (% of control) ([2]; MMP-9, concentration 1.46 µM): 90.75
remaining enzyme activity (% of control) ([2]; MMP-9, concentration 7.32 µM): 93.96
remaining enzyme activity (% of control) ([2]; MMP-9, concentration 36.60 µM): 74.71
remaining enzyme activity (% of control) ([2]; MMP-9, concentration 183.00 µM): 29.12
remaining enzyme activity (% of control) ([2]; MMP-9, concentration 915.00 µM): 0.00
IC50 [2, 4]: 99.6 ± 31.7 µM

Structure (SMILES): O=C(/C=C/CCCCNC(=O)c1cncc(O)c1)CC(=O)NCCNC(=O)Cn1cnc2c(oc3ccccc32)c1=O [182+828 Linker 12]
remaining activity at 0.0168 µM ([1]; MMP-2, concentration 0.0168 µM, read-out: Mean (MMP-2, Supplementary fig 16)): 102%
remaining activity at 0.08 µM ([1]; MMP-2, concentration 0.08 µM, read-out: Mean (MMP-2, Supplementary fig 16)): 100%
remaining activity at 0.42 µM ([1]; MMP-2, concentration 0.42 µM, read-out: Mean (MMP-2, Supplementary fig 16)): 98.9%
remaining activity at 2.1 µM ([1]; MMP-2, concentration 2.10 µM, read-out: Mean (MMP-2, Supplementary fig 16)): 113%
remaining activity at 10.52 µM ([1]; MMP-2, concentration 10.52 µM, read-out: Mean (MMP-2, Supplementary fig 16)): 85.5%
remaining activity at 52.6 µM ([1]; MMP-2, concentration 52.60 µM, read-out: Mean (MMP-2, Supplementary fig 16)): 48.1%
remaining activity at 263 µM ([1]; MMP-2, concentration 263.00 µM, read-out: Mean (MMP-2, Supplementary fig 16)): 6.96%
remaining activity at 1315 µM ([1]; MMP-2, concentration 1315.00 µM, read-out: Mean (MMP-2, Supplementary fig 16)): 0%
IC50 [1, 3]: 50.3 ± 11.1 µM
remaining activity at 0.0466 µM ([2]; MMP-9, concentration 0.0466 µM, read-out: Mean (MMP-9, Supplementary fig 16)): 97.3%
remaining activity at 0.23 µM ([2]; MMP-9, concentration 0.23 µM, read-out: Mean (MMP-9, Supplementary fig 16)): 81.8%
remaining activity at 1.17 µM ([2]; MMP-9, concentration 1.17 µM, read-out: Mean (MMP-9, Supplementary fig 16)): 81.4%
remaining activity at 5.83 µM ([2]; MMP-9, concentration 5.83 µM, read-out: Mean (MMP-9, Supplementary fig 16)): 70.8%
remaining activity at 29.14 µM ([2]; MMP-9, concentration 29.14 µM, read-out: Mean (MMP-9, Supplementary fig 16)): 63.8%
remaining activity at 145.72 µM ([2]; MMP-9, concentration 145.72 µM, read-out: Mean (MMP-9, Supplementary fig 16)): 15.2%
remaining activity at 728.6 µM ([2]; MMP-9, concentration 728.60 µM, read-out: Mean (MMP-9, Supplementary fig 16)): 0%
IC50 [2, 4]: 45.9 ± 24.2 µM

Structure (SMILES): O=C(CSCCNC(=O)c1cncc(O)c1)NCCNC(=O)Cn1cnc2c(oc3ccccc32)c1=O [182+828 Linker 24]
remaining activity at 0.011 µM ([1]; MMP-2, concentration 0.011 µM, read-out: Mean (MMP-2, Supplementary fig 16)): 96.4%
remaining activity at 0.0548 µM ([1]; MMP-2, concentration 0.0548 µM, read-out: Mean (MMP-2, Supplementary fig 16)): 104%
remaining activity at 0.27 µM ([1]; MMP-2, concentration 0.27 µM, read-out: Mean (MMP-2, Supplementary fig 16)): 97.6%
remaining activity at 1.37 µM ([1]; MMP-2, concentration 1.37 µM, read-out: Mean (MMP-2, Supplementary fig 16)): 90.8%
remaining activity at 6.86 µM ([1]; MMP-2, concentration 6.86 µM, read-out: Mean (MMP-2, Supplementary fig 16)): 86.3%
remaining activity at 34.28 µM ([1]; MMP-2, concentration 34.28 µM, read-out: Mean (MMP-2, Supplementary fig 16)): 48.6%
remaining activity at 171.4 µM ([1]; MMP-2, concentration 171.40 µM, read-out: Mean (MMP-2, Supplementary fig 16)): 5.35%
remaining activity at 857 µM ([1]; MMP-2, concentration 857.00 µM, read-out: Mean (MMP-2, Supplementary fig 16)): 0%
IC50 [1, 3]: 33.3 ± 6.4 µM
remaining activity at 0.0548 µM ([2]; MMP-9, concentration 0.0548 µM, read-out: Mean (MMP-9, Supplementary fig 16)): 95.4%
remaining activity at 0.27 µM ([2]; MMP-9, concentration 0.27 µM, read-out: Mean (MMP-9, Supplementary fig 16)): 85.7%
remaining activity at 1.37 µM ([2]; MMP-9, concentration 1.37 µM, read-out: Mean (MMP-9, Supplementary fig 16)): 87.6%
remaining activity at 6.86 µM ([2]; MMP-9, concentration 6.86 µM, read-out: Mean (MMP-9, Supplementary fig 16)): 77.5%
remaining activity at 34.28 µM ([2]; MMP-9, concentration 34.28 µM, read-out: Mean (MMP-9, Supplementary fig 16)): 52.4%
remaining activity at 171.4 µM ([2]; MMP-9, concentration 171.40 µM, read-out: Mean (MMP-9, Supplementary fig 16)): 0%
remaining activity at 857 µM ([2]; MMP-9, concentration 857.00 µM, read-out: Mean (MMP-9, Supplementary fig 16)): 0%
IC50 [2, 4]: 35.3 ± 15 µM

Structure (SMILES): O=C(Cn1cnc2c(oc3ccccc32)c1=O)NCc1c[nH]nn1 [182_787 1]
IC50 [1, 5]: 95.5 µM
IC50 [2, 6]: 143 µM

Structure (SMILES): O=C(CCC(=O)NCc1c[nH]nn1)NCCCCCCCCNC(=O)Cn1cnc2c(oc3ccccc32)c1=O [182_787 4]
IC50 [1, 5]: 193 µM
IC50 [2, 6]: 134 µM

Continued, values first:

IC50 [1, 5]: 45.9 µM
IC50 [2, 6]: 126 µM
Structure (SMILES): O=C(CSCCNC(=O)Cn1cnc2c(oc3ccccc32)c1=O)NCc1c[nH]nn1 [182_787 24]

IC50 [1, 5]: 62.3 µM
IC50 [2, 6]: 131 µM
Structure (SMILES): Cn1c(O)nc2cc(C(=O)NCCCCC=CC(=O)CC(=O)NCCNC(=O)Cn3cnc4c(oc5ccccc54)c3=O)cnc21 [182_826 12]

IC50 [1, 5]: 77.1 µM
IC50 [2, 6]: 92.1 µM
Structure (SMILES): O=C(Cn1cnc2c(oc3ccccc32)c1=O)NCCNC(=O)c1cncc(O)c1 [182_828 1]

IC50 [1, 5]: 188 µM
IC50 [2, 6]: 233 µM
Structure (SMILES): O=C(Cn1cnc2c(oc3ccccc32)c1=O)NCCCCCCCCNC(=O)c1cncc(O)c1 [182_828 4]

IC50 [1, 5]: 43 µM
IC50 [2, 6]: 99.6 µM
Structure (SMILES): O=C(Cn1cnc2c(oc3ccccc32)c1=O)NCCOCCOCCNC(=O)c1cncc(O)c1 [182_828 10]

IC50 [1, 5]: 50.3 µM
IC50 [2, 6]: 45.9 µM
Structure (SMILES): O=C(/C=C/CCCCNC(=O)c1cncc(O)c1)CC(=O)NCCNC(=O)Cn1cnc2c(oc3ccccc32)c1=O [182_828 12]

IC50 [1, 5]: 33.3 µM
IC50 [2, 6]: 35.3 µM
Structure (SMILES): O=C(CSCCNC(=O)c1cncc(O)c1)NCCNC(=O)Cn1cnc2c(oc3ccccc32)c1=O [182_828 24]
